According to article PMC11796242, “Nitidine chloride inhibits the progression of hepatocellular carcinoma by suppressing IGF2BP3 and modulates metabolic pathways in an m^6A-dependent manner” (Molecular Medicine, 2025):

Biological target: T1, IGF2BP3 (Homo sapiens, UniProt O00425)
T1 construct: immobilised by amine coupling on CM5 chip (PDB 6GQE used only for docking)
Experiment: SPR (BIAcore T200, CM5 chip, immobilised IGF2BP3, […] Langmuir global fit)
Format: binding

T1 sequence (O00425 whole entry): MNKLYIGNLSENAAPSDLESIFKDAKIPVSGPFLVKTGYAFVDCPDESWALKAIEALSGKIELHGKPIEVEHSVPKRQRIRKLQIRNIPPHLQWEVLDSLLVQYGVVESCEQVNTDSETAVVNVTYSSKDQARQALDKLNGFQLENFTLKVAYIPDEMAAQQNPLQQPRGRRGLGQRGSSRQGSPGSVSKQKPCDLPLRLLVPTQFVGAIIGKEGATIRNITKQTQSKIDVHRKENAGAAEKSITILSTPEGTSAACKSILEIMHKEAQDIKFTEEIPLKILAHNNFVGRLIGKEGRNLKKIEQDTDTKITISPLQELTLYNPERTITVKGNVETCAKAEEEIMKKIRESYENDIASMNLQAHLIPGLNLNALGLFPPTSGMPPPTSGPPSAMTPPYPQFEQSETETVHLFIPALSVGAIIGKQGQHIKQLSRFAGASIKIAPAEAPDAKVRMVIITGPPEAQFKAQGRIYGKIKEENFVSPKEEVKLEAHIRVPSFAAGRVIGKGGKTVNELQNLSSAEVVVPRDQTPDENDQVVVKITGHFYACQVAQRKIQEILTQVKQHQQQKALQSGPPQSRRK

Kd: 6.37 µM
Structure (SMILES): COc1cc2c[n+](C)c3c4cc5c(cc4ccc3c2cc1OC)OCO5 [nitidine chloride]
